Reference: patent US20090105225A1, “2-Substituted 4-Benzylphthalazinone Derivatives as Histamine H1 and H3 Antagonists” (GLAXO GROUP LIMITED, priority 2006, published 2009)
Counter-ions that a name gives are not always drawn.

Experiments:
human H1 receptor = target: T1, human H1 receptor (Homo sapiens, UniProt P35367); test: Histamine H1 functional antagonist assay (FLIPR): determination of antagonist pA2 and duration; format: cell-based; settings: at one or more time points; compared with azelastine
T1 construct: expressed in transfected cells
Protocol: The human H1 receptor is cloned using known procedures described in the literature [Biochem. Biophys. Res. Commun., 201(2):894 (1994)]. Chinese hamster ovary (CHO) cells stably expressing the human H1 receptor are generated according to known procedures described in the literature [Br. J. Pharmacol., 117(6):1071 (1996)].
The histamine H1 receptor expressing CHO cells are seeded into non-coated black-walled clear bottom 96-well tissue culture plates as described above.
Following overnight culture, growth medium is removed from each well, washed with 200 μl phosphate buffered saline (PBS) and is replaced with 50 μl loading dye (250 μM Brilliant Black, 1 μM Fluo-4 diluted in Tyrodes buffer+probenecid (145 mM NaCl, 2.5 mM KCl, 10 mM HEPES, 10 mM D-glucose, 1.2 mM MgCl2, 1.5 mM CaCl2, 2.5 mM probenecid, pH adjusted to 7.40 with NaOH 1.0 M)). Cells are incubated for 45 min at 37° C. The loading buffer is removed and the cells are washed as above, and 90 μl of Tyrodes buffer+probenecid is added to each well. 10 μl of test compound, diluted to the required concentration in Tyrodes buffer+probenecid (or 10 μl Tyrodes buffer+probenecid as a control) is added to each well and the plate is incubated for 30 min at 37° C., 5% CO2.
The plates are then placed into a FLIPR™ (Molecular Devices, UK) to monitor cell fluorescence (λex=488 nm, λEM=540 nm) in the manner described in Sullivan et al., (In: Lambert D G (ed.), Calcium Signaling Protocols, New Jersey: Humana Press, 1999, 125-136) before and after the addition of 50 μl histamine over a concentration range of 1 mM-0.1 nM. The resultant concentration response curves are analysed by non-linear regression using a standard four parameter logistic equation to determine the histamine EC50, the concentration of histamine required to produce a response of 50% of the maximum response to histamine. The antagonist pA2 is calculated using the following standard equation: pA2=log(DR−1)−log [B] where DR=dose ratio, defined as EC50 antagonist-treated/EC50 control and [B]=concentration of antagonist.
To determine the antagonist duration, cells are cultured overnight in non-coated black-walled clear bottom 96-well tissue culture plates, are washed with PBS and are incubated with a concentration of antagonist chosen to give an approximate DR in the range 30-300. Following the 30 min antagonist incubation period, the cells are washed two or three times with 200 μl of PBS and then 100 μl Tyrodes buffer is added to each well to initiate antagonist dissociation. Following incubation for predetermined times, typically 30-270 min at 37° C., the cells are then washed again with 200 μl PBS and are incubated with 100 μl Tyrodes buffer containing Brilliant Black, probenecid and Fluo-4 for 45 min at 37° C., as described above. After this period, the cells are challenged with histamine in the FLIPR™ as described above. The dose ratio at each time point is used to determine the fractional H1 receptor occupancy by the following equation: fractional receptor occupancy=(DR-1)/DR. The decrease in receptor occupancy over time approximates to a straight line and is analysed by linear regression. The slope of this straight line fit is used as an index of the dissociation rate of the antagonist. The dose ratios for antagonist treated cells and for antagonist treated and washed cells at each time point are used to calculate a relative dose ratio (rel DR) which is also used as an index of antagonist duration. Antagonists with long duration of action produce rel DR values close to 1, and antagonists with short duration of action produce rel DR values that approaches the dose ratio value obtained for antagonist treatment alone.

[1] = CNS penetration (intravenous bolus or steady-state infusion, brain and blood concentration); format: in vivo, rat; settings: compared with azelastine
Protocol: Compounds are dosed intravenously at a nominal dose level of 1 mg/kg to male CD Sprague Dawley rats. Compounds are formulated in 5% DMSO/45% PEG200/50% water. Blood samples are taken under terminal anaesthesia with isoflurane at 5 min post-dose and the brains are also removed for assessment of brain penetration. Blood samples are taken directly into heparinised tubes. Blood samples are prepared for analysis using protein precipitation and brain samples are prepared using extraction of drug from brain by homogenisation and subsequent protein precipitation. The concentration of parent drug in blood and brain extracts is determined by quantitative LC-MS/MS analysis using compound-specific mass transitions.
A loading dose of the compounds is given to male CD Sprague Dawley rats at a nominal dose level of 0.4 mg/kg. The compounds are then infused intravenously for 4 h at a nominal dose level of 0.1 mg/kg/h. Compounds are formulated in 2% DMSO/30% PEG200/68% water. Serial or terminal blood samples are taken at 0.5, 1.5, 2.5, 3, 3.5 and 4 h post dose. The final blood sample is collected under terminal anaesthesia with isoflurane and the brains are also removed for assessment of brain penetration. Blood samples are taken directly into heparinised tubes. Blood samples are prepared for analysis using protein precipitation and brain samples are prepared using extraction of drug from brain by homogenisation and subsequent protein precipitation. The concentration of parent drug in blood and brain extracts is determined by quantitative LC-MS/MS analysis using compound-specific mass transitions.

[2] = tested on: histamine-induced congestion; test: Intranasal histamine challenge, whole body plethysmography; format: in vivo; settings: 24 hours after dosing; compared to azelastine; Guinea Pig whole body plethysmography model (FIG. 3)
Protocol: Female Dunkin-Hartley guinea pigs 150-250 g are sensitised twice daily for 5 days (week 1) with ovalbumin (OVA) and aluminium hydroxide (Al(OH)3 or Alum) in physiological saline, 25 μl/nostril. Solution is made up at 20 μg/ml OVA, 180 mg/ml Alum. During weeks 2 and 3, animals receive 25 μl/nostril of OVA (5 mg/ml) once daily. During Week 4 guinea pigs will be entered into study but are continually sensitized as per weeks 2 and 3 until the day before dosing with compound or vehicle.
Pretreatment with test compound is performed at various times prior to histamine challenge. Efficacy dose-response curves are determined 1 h after dosing whereas duration of action is studied up to 7 days post dose. Test compounds are formulated as solutions in 0.9% sterile saline or suspensions in 0.9% sterile saline/tween80. […]
After the stipulated pre-dose time has been reached, guinea pigs are re-anaesthetised with isoflurane and dosed with either 15 mM histamine or phosphate-buffered saline (PBS), (25 μl per nostril). […] Data are analysed using ANOVA with post-hoc Fishers LSD test (general linear models, Statistica®) and finally Hochberg adjustment. Inhibition of histamine-induced congestion is determined by statistically significant differences between the mean responses of compound pre-treated groups compared to the vehicle pre-treated, histamine-challenged group.

T1 sequence (P35367 whole entry): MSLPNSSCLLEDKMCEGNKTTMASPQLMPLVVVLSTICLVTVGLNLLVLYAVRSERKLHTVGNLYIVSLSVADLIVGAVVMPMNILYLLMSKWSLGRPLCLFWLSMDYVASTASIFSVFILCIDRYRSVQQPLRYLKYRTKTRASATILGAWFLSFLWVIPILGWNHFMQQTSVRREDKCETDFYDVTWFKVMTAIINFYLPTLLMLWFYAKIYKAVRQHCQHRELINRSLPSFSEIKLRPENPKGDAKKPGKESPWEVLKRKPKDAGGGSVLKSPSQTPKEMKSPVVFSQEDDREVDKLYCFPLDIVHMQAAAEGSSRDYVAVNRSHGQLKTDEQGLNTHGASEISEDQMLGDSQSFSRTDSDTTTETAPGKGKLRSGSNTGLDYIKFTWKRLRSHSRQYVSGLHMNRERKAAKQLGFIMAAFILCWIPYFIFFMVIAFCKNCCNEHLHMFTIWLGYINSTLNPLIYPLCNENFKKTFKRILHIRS

| SMILES | duration of action in the histamine H1 functional antagonist assay (human H1 receptor) | CNS penetration [1] | inhibition of nasal congestion [2] |
| --- | --- | --- | --- |
| O=c1c2ccncc2c(Cc2ccc(Cl)cc2)nn1C[C@H]1CCCN1CCCCc1ccc(OCCCN2CCCCCC2)cc1 [Example 23] | longer duration of action than azelastine | – | – |
| O=C(NCCN1CCCC(n2nc(Cc3ccc(Cl)cc3)c3ccccc3c2=O)CC1)c1ccc2c(c1)CCN(C1CCC1)CC2 (centres unmarked) [Example 18, N-(2-{4-[4-[(4-Chlorophenyl)methyl]-1-oxo-2(1H)-phthalazinyl]hexahydro-1H-azepin-1-yl}ethyl)-3-cyclobutyl-2,3,4,5-tetrahydro-1H-3-benzazepine-7-carboxamide Diformate Salt] | longer duration of action than azelastine | – | – |
| O=c1c2ccccc2c(Cc2ccc(F)cc2)nn1C[C@H]1CCCN1CCCCc1ccc(OCCCN2CCCCCC2)cc1 [Example 9, 4-[(4-Fluorophenyl)methyl]-2-({(2R)-1-[4-(4-{[3-(hexahydro-1H-azepin-1-yl)propyl]oxy}phenyl)butyl]-2-pyrrolidinyl}methyl)-1(2H)-phthalazinone] | longer duration of action than azelastine | – | – |
| O=c1c2ccccc2c(Cc2ccc(Cl)cc2)nn1C1CCCN(CCCOc2ccc3c(c2)CCN(C2CCC2)CC3)CC1 (centres unmarked) [Example 16, 4-[(4-Chlorophenyl)methyl]-2-(1-{3-[(3-cyclobutyl-2,3,4,5-tetrahydro-1H-3-benzazepin-7-yl)oxy]propyl}hexahydro-1H-azepin-4-yl)-1(2H)-phthalazinone Formate Salt] | – | comparable CNS penetration to azelastine | – |
| COc1ccc(Cc2nn(C[C@H]3CCCN3CCCCc3ccc(OCCCN4CCCCCC4)cc3)c(=O)c3ccccc23)cc1 [Example 7, 2-({(2R)-1-[4-(4-{[3-(Hexahydro-1H-azepin-1-yl)propyl]oxy}phenyl)butyl]-2-pyrrolidinyl}methyl)-4-{[4-(methyloxy)phenyl]methyl}-1(2H)-phthalazinone Diformate] | longer duration of action than azelastine | lower CNS penetration than azelastine | – |
| O=c1c2ccccc2c(Cc2ccc(O)cc2)nn1C[C@H]1CCCN1CCCCc1ccc(OCCCN2CCCCCC2)cc1 [Example 8, 2-({(2R)-1-[4-(4-{[3-(Hexahydro-1H-azepin-1-yl)propyl]oxy}phenyl)butyl]-2-pyrrolidinyl}methyl)-4-[(4-hydroxyphenyl)methyl]-1(2H)-phthalazinone] | longer duration of action than azelastine | – | – |
| O=c1c2ccccc2c(Cc2ccc(Cl)cc2)nn1C[C@H]1CCCN1CCCCc1ccc(OCCCN2CCCCCC2)cc1 [Example 24, 4-[(4-Chlorophenyl)methyl]-2-({(2R)-1-[4-(4-{[3-(hexahydro-1H-azepin-1-yl)propyl]oxy}phenyl)butyl]-2-pyrrolidinyl}methyl)-1(2H)-phthalazinone Free Base] | significantly longer duration of action than azelastine | lower CNS penetration than azelastine | statistically significant inhibition of nasal congestion |
| O=c1c2ccccc2c(Cc2ccc(Cl)cc2)nn1C[C@H]1CCCN1CCCOc1ccc2c(c1)CCN(C1CCC1)CC2 [Example 15, 4-[(4-Chlorophenyl)methyl]-2-[((2R)-1-{3-[(3-cyclobutyl-2,3,4,5-tetrahydro-1H-3-benzazepin-7-yl)oxy]propyl}-2-pyrrolidinyl)methyl]-1(2H)-phthalazinone] | longer duration of action than azelastine | – | – |
